Results: PMC9421656, “Beyond Retigabine: Design, Synthesis, and Pharmacological Characterization of a Potent and Chemically Stable Neuronal Kv7 Channel Activator with Anticonvulsant Activity” (Journal of Medicinal Chemistry, 2022)
Read-outs that look alike come from different tables or passages of the source.

Assays:
[1] = test system: epileptic activity; design: method as in PMID 25319542; conditions: cited from earlier work
[2] = Lipophilicity (log P)
[3] = literature value; cited from earlier work
[4] = target: Kv7.2/Kv7.3 currents (Homo sapiens, UniProt O43525+O43526); conditions: 3 mM TEA
Description: To ensure that both Kv7.2 and Kv7.3 subunits were expressed into the selected clone and formed heteromeric channels, pharmacological experiments with the Kv7 channel blocker tetraethylammonium (TEA) were performed.[64] […] The effect of TEA blockade on Kv7.2/Kv7.3 currents on the selected clone was compared to that of the blockade exerted on the control group, represented by CHO cells transiently transfected with Kv7.2/Kv7.3 channels. The effect of the TEA blockade was investigated using a ramp protocol in which Kv7.2/Kv7.3 currents were activated by 3 s voltage ramps from −80 to +20 mV.

[5] = test system: Kv7.2; conditions: TEA blockade of Kv7.2; cited from earlier work
[6] = test system: Kv7.2/Kv7.3 channel; conditions: TEA blockade of heteromeric Kv7.2/Kv7.3; cited from earlier work

Chain of Kv7.2/Kv7.3 currents (O43526 whole entry): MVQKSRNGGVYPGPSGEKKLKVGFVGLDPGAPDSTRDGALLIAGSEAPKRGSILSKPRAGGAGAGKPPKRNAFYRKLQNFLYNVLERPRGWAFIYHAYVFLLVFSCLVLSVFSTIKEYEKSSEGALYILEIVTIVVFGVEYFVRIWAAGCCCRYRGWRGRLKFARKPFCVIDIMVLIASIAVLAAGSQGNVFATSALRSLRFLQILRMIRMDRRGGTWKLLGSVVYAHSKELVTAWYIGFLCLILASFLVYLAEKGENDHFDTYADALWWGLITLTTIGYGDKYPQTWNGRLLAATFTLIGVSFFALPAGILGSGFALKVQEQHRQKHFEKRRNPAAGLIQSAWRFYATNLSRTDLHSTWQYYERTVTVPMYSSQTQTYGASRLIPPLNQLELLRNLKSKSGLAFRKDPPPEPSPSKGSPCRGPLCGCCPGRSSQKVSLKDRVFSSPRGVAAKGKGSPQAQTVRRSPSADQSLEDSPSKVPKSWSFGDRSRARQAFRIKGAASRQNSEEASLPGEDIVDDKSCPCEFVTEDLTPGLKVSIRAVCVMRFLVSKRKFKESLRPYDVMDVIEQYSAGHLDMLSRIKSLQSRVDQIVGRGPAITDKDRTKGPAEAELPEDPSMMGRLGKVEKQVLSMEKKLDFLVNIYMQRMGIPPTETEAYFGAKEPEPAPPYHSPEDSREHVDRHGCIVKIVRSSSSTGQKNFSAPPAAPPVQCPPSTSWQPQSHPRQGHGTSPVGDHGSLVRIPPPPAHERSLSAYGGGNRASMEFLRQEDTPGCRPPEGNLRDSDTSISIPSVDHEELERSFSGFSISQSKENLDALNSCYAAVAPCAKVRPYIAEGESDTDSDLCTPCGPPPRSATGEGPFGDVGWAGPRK
Chain of Kv7.2/Kv7.3 currents (O43525 whole entry): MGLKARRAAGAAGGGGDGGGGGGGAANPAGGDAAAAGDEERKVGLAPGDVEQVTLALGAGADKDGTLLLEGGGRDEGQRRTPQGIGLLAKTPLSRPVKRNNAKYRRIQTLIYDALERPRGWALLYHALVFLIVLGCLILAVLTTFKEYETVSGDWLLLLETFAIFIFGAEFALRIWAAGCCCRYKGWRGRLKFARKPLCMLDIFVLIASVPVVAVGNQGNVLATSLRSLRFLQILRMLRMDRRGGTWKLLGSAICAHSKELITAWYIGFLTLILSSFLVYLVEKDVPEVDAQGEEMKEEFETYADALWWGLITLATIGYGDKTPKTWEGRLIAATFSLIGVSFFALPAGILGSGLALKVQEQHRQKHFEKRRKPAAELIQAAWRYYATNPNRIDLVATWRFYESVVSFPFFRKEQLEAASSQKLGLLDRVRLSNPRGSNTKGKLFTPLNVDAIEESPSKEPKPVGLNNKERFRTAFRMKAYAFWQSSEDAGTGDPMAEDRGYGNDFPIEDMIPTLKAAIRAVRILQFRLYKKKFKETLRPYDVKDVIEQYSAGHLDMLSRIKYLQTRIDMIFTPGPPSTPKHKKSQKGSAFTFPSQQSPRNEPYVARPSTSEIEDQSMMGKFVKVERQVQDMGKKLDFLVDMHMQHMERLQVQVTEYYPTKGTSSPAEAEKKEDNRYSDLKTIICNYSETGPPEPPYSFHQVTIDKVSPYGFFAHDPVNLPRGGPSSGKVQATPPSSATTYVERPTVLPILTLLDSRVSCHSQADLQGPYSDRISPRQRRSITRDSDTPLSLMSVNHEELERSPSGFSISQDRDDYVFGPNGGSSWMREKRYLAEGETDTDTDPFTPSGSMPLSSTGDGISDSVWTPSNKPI

Structure (SMILES): C#CCN(Cc1ccc(F)cc1)c1ccc(NC(=O)OCC)c(N)c1 [P-RET, N-propargyl retigabine]
- In vivo potency higher than retigabine (suppression of epileptic activity) [1]: 2.5 times
- logP [2]: 3.48
- Increase in brain/plasma ratio compared to retigabine [3]: 14 fold

Structure (SMILES): CC[N+](CC)(CC)CC [TEA, tetraethylammonium]
- Current inhibition ([4]; CHO cells transiently transfected with Kv7.2/Kv7.3 (control group)): about 55%
- Current inhibition ([4]; selected stable clone (clone 5)): about 35%
- IC50 [5]: 300 µM
- IC50 [6]: 3000 µM
